Laboratory results from US9963462B2 (priority 2015, dated 2018).

Experiments:
[1] = molecular target: SNAP-hSPR (sepiapterin reductase, SPR) (Homo sapiens, UniProt P35270); test: biochemical; format: binding; conditions: terbium labelled SNAP-hSPR / SSZ labelled SNAP-EGFP; read-out: hTR-FRET IC50
[2] = tested on: BH4 levels in SK-N-BE (2) cells; test: SKN-N-BE (2) cellular assay, BH4 levels by LC-MS; format: cell-based; conditions: Homo sapiens, SKNBE2, read-out: SK-N-BE(2) IC50, SK-N-BE (2) cells, BH4 levels by LC-MS

SNAP-hSPR (sepiapterin reductase, SPR), sequence (P35270 whole entry): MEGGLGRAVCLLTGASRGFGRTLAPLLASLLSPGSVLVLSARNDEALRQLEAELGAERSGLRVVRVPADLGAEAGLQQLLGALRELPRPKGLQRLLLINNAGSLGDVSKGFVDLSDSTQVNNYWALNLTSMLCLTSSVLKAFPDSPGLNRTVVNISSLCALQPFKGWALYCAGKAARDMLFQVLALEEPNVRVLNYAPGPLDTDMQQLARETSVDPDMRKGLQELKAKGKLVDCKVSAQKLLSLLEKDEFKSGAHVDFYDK

SMILES | IC50 [1] [nM] | IC50 [2] [nM]
Cc1c(C(=O)N(C)CCc2c[nH]c3ccccc23)cnn1-c1nc2c(c(=O)[nH]1)CCC2 [Q-0497] | 9 | 400
CC(C)(C#N)C1CCN(C(=O)c2cnn(-c3nn4cccc4c(=O)[nH]3)c2)CC1 [Q-0720] | 1 | 300
CCN(C)C(=O)c1cnn(-c2nc(C)cc(=O)[nH]2)c1C [Q-0350] | 20 | 11000
COC(=O)c1ccc(-c2nc3c(c(=O)[nH]2)CCC3)nc1 [Q-0471] | 80 | 16000
Cc1c(C(=O)N2CCN3CCC[C@H]3C2)cnn1-c1nn2cccc2c(=O)[nH]1 [Q-0856] | 4 | 1100
Cc1cc(=O)[nH]c(-n2ncc(C(=O)NC3CCCC3)c2C(F)(F)F)n1 [Q-0334] | 80 | 49000
Cc1c(C(=O)N2CCN(c3ccc(Cl)cc3)CC2)cnn1-c1nn2cccc2c(=O)[nH]1 [Q-0827] | 2 | 65
Cc1cc(=O)[nH]c(-n2ncc(C(=O)NCC3(c4ccccc4)CCCC3)c2C)n1 [Q-0385] | 30 | 3800
Cc1c(C(=O)N2CCC(C3CC3)CC2)cnn1-c1nc2sccc2c(=O)[nH]1 [Q-0700] | 2 | 100
Cc1c(C(=O)N2CCC(c3nc4ccccc4s3)CC2)cnn1-c1nn2cccc2c(=O)[nH]1 [Q-0608] | 2 | 56
Cc1c(C(=O)N2CCC[C@H](C(F)(F)F)C2)cnn1-c1nc2c(c(=O)[nH]1)CCC2 (single isomer, unassigned) [Q-0475] | 5 | 300
CCC(C#N)(CC)C1CCN(C(=O)c2cnn(-c3nc4c(c(=O)[nH]3)CCC4)c2C)CC1 [Q-0626] | 1 | 14
CC1(C)CCN(C(=O)c2ccn(-c3nc4ccsc4c(=O)[nH]3)n2)C1 [Q-0389] | 20 | 5600
Cc1cc(=O)[nH]c(-n2ncc(C(=O)N3CCC(C(F)(F)F)CC3)c2C(C)C)n1 [Q-0444] | 10 | 2700
CCOC(=O)c1nnn(-c2nn3cccc3c(=O)[nH]2)c1C [Q-0780] | 1 | 200
Cc1cc(=O)[nH]c(-n2ncc(C(=O)N3CCCC(C(F)(F)F)C3)c2C)n1 (stereo not shown) [Q-0368] | 10 | 2900
Cc1c(C(=O)N2CCCCC2c2cccnc2)cnn1-c1nc2c(c(=O)[nH]1)CCC2 (stereo not shown) [Q-0505] | 4 | 100
Cc1c(C(=O)N2CCC3(CC2)COC3)cnn1-c1nn2cccc2c(=O)[nH]1 [Q-0793] | 3 | 1000
Cc1c(C(=O)N2CCC(c3ccccc3)C2)cnn1-c1nc2c(c(=O)[nH]1)CCC2 (stereo not shown) [Q-0510] | 5 | 100
O=C(c1cnn(-c2nc3sccc3c(=O)[nH]2)c1)N1CCN2CCC[C@@H]2C1 [Q-0755] | 4 | 500
Cc1c(C(=O)N2CCC(C(F)(F)F)CC2)nnn1-c1nn2cccc2c(=O)[nH]1 [Q-0832] | 1 | 200
Cc1c(C(=O)N2CCN(c3ccc(F)cc3F)CC2)cnn1-c1nn2cccc2c(=O)[nH]1 [Q-0715] | 2 | 97

SMILES | IC50 [1] [nM] | IC50 [2] [nM]
Cc1c(C(=O)O)cnn1-c1nc2c(c(=O)[nH]1)CCC2 [Q-0481, 5-methyl-1-{4-oxo-3H,4H,5H,6H,7H-cyclopenta[d]pyrimidin-2-yl}-1H-pyrazole-4-carboxylic acid] | 30 | 95000
Cc1c(C(=O)N2CCCCC2)cnn1-c1nc2c(c(=O)[nH]1)CCC2 [Q-0633] | 5 | 400
Cc1c(C(=O)N2CCN3CCC[C@@H]3C2)cnn1-c1nc2ccsc2c(=O)[nH]1 [Q-0556] | 7 | 600
Cc1c(C(=O)N2c3ccccc3C[C@@H]2C)cnn1-c1nc2ccsc2c(=O)[nH]1 (single isomer, unassigned) [Q-0415] | 30 | 1200
COC1CCCN(C(=O)c2cnn(-c3nc4c(c(=O)[nH]3)CCC4)c2C)C1 (stereo not shown) [Q-0482] | 8 | 1000
Cc1c(C(=O)N2CCC3(CCCCN3C(=O)OC(C)(C)C)C2)cnn1-c1nc2ccsc2c(=O)[nH]1 (stereo not shown) [Q-0579] | 5 | 100
Cc1cc(=O)[nH]c(-n2ncc(C(=O)NC3CCc4ccccc43)c2C)n1 (stereo not shown) [Q-0363] | 30 | 5800
COC1CCN(C(=O)c2cnn(-c3nc4c(c(=O)[nH]3)CCC4)c2C)C1 (stereo not shown) [Q-0478] | 6 | 1400
O=C(c1cnn(-c2nc3ccsc3c(=O)[nH]2)c1)N1CCC(S(=O)(=O)c2ccccc2)CC1 [Q-0524] | 4 | 1100
O=C(c1cnn(-c2nc3c(c(=O)[nH]2)CCC3)c1)N1CCC(c2c[nH]c3ccccc23)CC1 [Q-0702] | 2 | 32
O=C(c1cnn(-c2nc3c(c(=O)[nH]2)CCC3)c1)N1CCN2CCC[C@@H]2C1 [Q-0743] | 4 | 400
Cc1c(C(=O)N2CCc3ccccc3C2)cnn1-c1ncc(Cl)c(=O)[nH]1 [Q-0387] | 10 | 3700
O=C(c1cnn(-c2nn3c(F)ccc3c(=O)[nH]2)c1C1CC1)N1CCC(C(F)(F)F)CC1 [Q-0620] | 1 | 100
Cc1cc(=O)[nH]c(-n2ccc(C(=O)NC3CCCC3)n2)n1 [Q-0333] | 20 | 12000
Cc1c(C(=O)N2CCC3(CC2)CC3)cnn1-c1nn2cccc2c(=O)[nH]1 [Q-0681] | 1 | 200
Cc1ccc(C2(C)CN(C(=O)c3cnn(-c4nc5c(c(=O)[nH]4)CCC5)c3C)CCO2)cc1 (stereo not shown) [Q-0501] | 9 | 200
Cc1c(C(=O)N2CCC(O)(c3ccccc3)CC2)cnn1-c1nc2c(c(=O)[nH]1)CCC2 [Q-0446] | 7 | 96
Cc1cc(=O)[nH]c(-n2ncc(C(=O)N3CCc4ccccc43)c2C)n1 [Q-0001] | 20 | 2700
Cc1c(C(=O)N2CCN(C(=O)OC(C)(C)C)CC2)cnn1-c1nc2c(c(=O)[nH]1)CCC2 [Q-0723] | 3 | 200
Cc1c(CN2CCCCC2=O)cnn1-c1nc2c(c(=O)[nH]1)CCC2 [Q-0494, 1-[(5-methyl-1-{4-oxo-3H,4H,5H,6H,7H-cyclopenta[d]pyrimidin-2-yl}-1H-pyrazol-4-yL)methyl]piperidin-2-one] | 6 | 300
Cc1c(C(=O)N2C[C@@H]3CN(C(=O)OC(C)(C)C)[C@@H]3C2)cnn1-c1nn2cccc2c(=O)[nH]1 [Q-0773] | 6 | 1700
Cc1c(C(=O)N2CCC(C(F)(F)F)CC2)cnn1-c1nc2c(ccn2C)c(=O)[nH]1 [Q-0426] | 100 | 16000

SMILES | IC50 [1] [nM] | IC50 [2] [nM]
Cc1c(C(=O)N2c3ccccc3CC2C)cnn1-c1nc2ccsc2c(=O)[nH]1 (stereo not shown) [Q-0401] | 30 | 400
Cc1c(C(=O)N2CCN(C)CC2)cnn1-c1nc2c(c(=O)[nH]1)CCC2 [Q-0722] | 20 | 3300
Cc1c(C(=O)N2CCC(C#N)CC2)cnn1-c1nc2c(c(=O)[nH]1)CCC2 [Q-0464] | 3 | 300
Cc1c(C(=O)N2CC3(C2)CC(O)(C(F)(F)F)C3)cnn1-c1nn2cccc2c(=O)[nH]1 [Q-0805] | 4 | 2300
Cc1c(C(=O)N2CCC[C@@H]2C(=O)OCc2ccccc2)cnn1-c1nc2c(c(=O)[nH]1)CCC2 [Q-0496] | 7 | 400
Cc1c(C(=O)N2CCNCC2)cnn1-c1nc2c(c(=O)[nH]1)CCC2 [Q-0714] | 30 | 8100
CN[C@@H]1CCN(C(=O)c2cnn(-c3nc4ccsc4c(=O)[nH]3)c2C)C1 [Q-0584] | 200 | 10000
Cc1c(C(=O)N2CCc3ccccc3C2)cnn1-c1nc(C(F)(F)F)cc(=O)[nH]1 [Q-0393] | 6 | 800
O=C(c1cnn(-c2nn3cccc3c(=O)[nH]2)c1)N1CCC(C2CC2)CC1 [Q-0709] | 1 | 28
Cc1c(C(=O)N2CCC(C(F)(F)F)CC2)ccn1-c1nc2c(c(=O)[nH]1)CCC2 [Q-0622, 2-(2-methyl-3-(4-(trifluoromethyl)piperidine-1-carbonyl)-1H-pyrrol-1-yl)-6,7-dihydro-3H-cyclopenta[d]pyrimidin-4(5H)-one] | 1 | 58
Cc1c(C(=O)N2CCC(C3CC3)CC2)cnn1-c1nn2cccc2c(=O)[nH]1 [Q-0727] | 1 | 81
CCC1(C#N)CCN(C(=O)c2cn(-c3nn4cccc4c(=O)[nH]3)nn2)CC1 [Q-0775] | 2 | 1000
Cc1cc(=O)[nH]c(-n2cc(C)c(C(=O)N3CCc4ccccc4C3)n2)n1 [Q-0366] | 400 | 128000
Cc1c(C(=O)N2CC(O)(C3CC3)C2)cnn1-c1nn2cccc2c(=O)[nH]1 [Q-0814] | 2 | 400
Cc1c(C(=O)N(C)Cc2ccc3ncccc3c2)cnn1-c1nc2c(c(=O)[nH]1)CCC2 [Q-0506] | 3 | 200
Cc1c(C(=O)N2CCCC2(C)C)cnn1-c1nc2ccsc2c(=O)[nH]1 [Q-0397] | 20 | 2300
Cc1c(C(=O)N2CCN(c3ccccn3)CC2)cnn1-c1nn2cccc2c(=O)[nH]1 [Q-0843] | 1 | 200
Cc1c(C(=O)N2CC3CC3(O)C2)cnn1-c1nc2ccsc2c(=O)[nH]1 (stereo not shown) [Q-0621] | 20 | 5200
O=C(c1cnn(-c2nn3cccc3c(=O)[nH]2)c1)N1CCC(S(=O)(=O)c2ccccc2)CC1 [Q-0535] | 4 | 400
Cc1cc(=O)[nH]c(-n2ncc(C(=O)N3c4ccccc4C[C@H]3C)c2C)n1 (single isomer, unassigned) [Q-0361] | 10 | 600
Cc1c(C(=O)N2CC3CC2C3)cnn1-c1nn2cccc2c(=O)[nH]1 [Q-0791] | 2 | 600
